Active and inactive are the calls of the source.
Legend:
[1] = biological target: G-protein coupled receptor 35 (Homo sapiens, UniProt Q9HC97); assay: GPR35 antagonists blocking zaprinast-driven arrestin recruitment, primary screen, imaging, U2OS, beta-arrestin-GFP, zaprinast agonist (AID 2058); assay type: functional;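 further: antagonist potency meaning inhibition of agonist-induced arrestin redistribution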
HEK293 [2] = assay: NOD1 signaling inhibitors, primary screen, cell-based, luminescence, uHTS (AID 1578); assay type: functional; settings: Homo sapiens
[3] = biological target: T1, Runt-related transcription factor 1/Core-binding factor subunit beta (Homo sapiens, UniProt Q01196+Q13951); assay: inhibitors of RUNX1 Runt–CBFb-SMMHC binding, primary screen, biochemical, FRET, Cerulean-Runt, Venus-CBFb-SMMHC, uHTS (AID 1434); assay type: protein assay;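 further: partner is the CBFb-SMMHC leukemia fusion protein rather than wild-type CBFb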
HEK293 [4] = assay: cells; assay type: functional, cell-based; settings: Homo sapiens
HEK293 [5] = assay: cells; assay type: functional, cell-based; settings: Homo sapiens; remark: listed apart in the source
[6] = biological target: T1, Runt-related transcription factor 1/Core-binding factor subunit beta; assay: inhibitors of RUNX1 Runt–CBFb-SMMHC binding, biochemical, TR-FRET (AID 1438); assay type: protein assay
[7] = biological target: T2, Nucleotide-binding oligomerization domain-containing protein 2 (Homo sapiens, UniProt Q9HC29); assay: NOD2 signaling inhibitors, cell-based, luminescence, uHTS, HEK293 (AID 1566); assay type: functional
HEK293 [8] = assay: NOD2 signaling inhibitors in MDP-stimulated cells, cell-based, uHTS, luminescence (AID 2001); assay type: functional; settings: Homo sapiens
HEK293 [9] = assay: cells; assay type: functional, cell-based; settings: Homo sapiens; remark: listed apart in the source
Tumor necrosis factor = Tumor necrosis factor (Homo sapiens, UniProt P01375); assay: TNFa-triggered NF-kB activation inhibitors, SAR follow-up, cell-based, revised (AID 2337); assay type: functional
[10] = biological target: T3, Nucleotide-binding oligomerization domain-containing protein 1 (Homo sapiens, UniProt Q9Y239); assay: NOD1 signaling inhibitors, SAR follow-up, revised (AID 2333); assay type: functional
T3 sequence (Q9Y239 whole entry): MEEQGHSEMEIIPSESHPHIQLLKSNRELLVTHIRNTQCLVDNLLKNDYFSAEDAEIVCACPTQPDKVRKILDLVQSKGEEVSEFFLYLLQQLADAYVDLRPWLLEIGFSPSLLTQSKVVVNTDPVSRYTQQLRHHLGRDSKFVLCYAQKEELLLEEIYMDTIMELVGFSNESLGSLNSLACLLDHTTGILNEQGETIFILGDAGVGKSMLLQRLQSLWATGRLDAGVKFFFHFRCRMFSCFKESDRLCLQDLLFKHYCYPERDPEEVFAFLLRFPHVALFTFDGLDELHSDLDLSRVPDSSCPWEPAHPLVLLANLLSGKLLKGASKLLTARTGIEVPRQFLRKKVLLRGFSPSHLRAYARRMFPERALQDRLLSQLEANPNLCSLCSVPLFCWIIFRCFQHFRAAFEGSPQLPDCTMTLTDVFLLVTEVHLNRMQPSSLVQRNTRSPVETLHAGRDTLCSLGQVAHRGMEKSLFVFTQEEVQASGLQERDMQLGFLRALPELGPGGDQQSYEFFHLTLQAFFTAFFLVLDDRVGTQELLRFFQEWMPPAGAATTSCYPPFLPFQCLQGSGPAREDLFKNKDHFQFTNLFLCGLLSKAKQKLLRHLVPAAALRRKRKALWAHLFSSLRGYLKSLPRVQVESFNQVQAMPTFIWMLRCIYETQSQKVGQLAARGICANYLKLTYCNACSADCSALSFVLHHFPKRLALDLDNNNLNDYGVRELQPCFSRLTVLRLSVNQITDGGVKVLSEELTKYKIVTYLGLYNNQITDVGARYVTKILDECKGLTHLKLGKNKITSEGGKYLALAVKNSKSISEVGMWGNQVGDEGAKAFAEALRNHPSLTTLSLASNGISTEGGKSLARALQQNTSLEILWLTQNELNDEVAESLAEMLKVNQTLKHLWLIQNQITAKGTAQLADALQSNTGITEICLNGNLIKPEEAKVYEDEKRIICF

Beta-galactosidase = Beta-galactosidase (Escherichia coli, UniProt Q8VNN2); assay: beta-galactosidase enzyme inhibitors and activators, dose response, artefact control for CCR6 antagonist project, biochemical, E. coli enzyme, set 3 (AID 504712); assay type: functional
[11] = biological target: T2, Nucleotide-binding oligomerization domain-containing protein 2; assay: PubChem AID 2334; assay type: functional
Hexokinase HKDC1 = biological target: T4, Hexokinase HKDC1 (Homo sapiens, UniProt Q2TB90); assay: HKDC1 hexokinase inhibitors, dose response, biochemical, W721R variant (AID 504729); assay type: functional
T4 sequence (Q2TB90 whole entry): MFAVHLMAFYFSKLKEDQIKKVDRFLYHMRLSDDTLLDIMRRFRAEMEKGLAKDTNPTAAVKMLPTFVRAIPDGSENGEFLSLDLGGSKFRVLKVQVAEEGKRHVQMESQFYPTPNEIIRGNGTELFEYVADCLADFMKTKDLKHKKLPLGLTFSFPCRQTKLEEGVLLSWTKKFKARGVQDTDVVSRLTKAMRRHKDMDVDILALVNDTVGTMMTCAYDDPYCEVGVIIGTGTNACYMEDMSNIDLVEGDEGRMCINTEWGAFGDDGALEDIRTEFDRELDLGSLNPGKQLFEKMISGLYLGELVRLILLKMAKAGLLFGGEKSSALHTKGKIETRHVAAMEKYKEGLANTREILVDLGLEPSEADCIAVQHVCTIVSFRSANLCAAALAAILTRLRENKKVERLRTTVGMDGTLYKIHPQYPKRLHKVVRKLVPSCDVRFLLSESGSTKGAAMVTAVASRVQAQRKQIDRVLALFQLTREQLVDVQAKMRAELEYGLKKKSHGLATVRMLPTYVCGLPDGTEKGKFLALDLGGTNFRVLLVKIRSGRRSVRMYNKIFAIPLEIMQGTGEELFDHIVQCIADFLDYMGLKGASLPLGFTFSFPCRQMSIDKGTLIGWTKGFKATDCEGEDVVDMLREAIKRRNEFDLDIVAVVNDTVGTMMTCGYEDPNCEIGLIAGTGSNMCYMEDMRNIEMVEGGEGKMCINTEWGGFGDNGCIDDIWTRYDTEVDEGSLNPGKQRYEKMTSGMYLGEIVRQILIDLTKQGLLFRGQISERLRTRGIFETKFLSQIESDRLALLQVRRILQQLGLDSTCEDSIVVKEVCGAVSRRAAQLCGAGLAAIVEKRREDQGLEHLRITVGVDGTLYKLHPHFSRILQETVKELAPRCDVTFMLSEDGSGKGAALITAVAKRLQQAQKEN

[12] = biological target: Heat shock protein HSP 90-alpha (Homo sapiens, UniProt P07900); assay type: functional, organism-based
[13] = THP-1 cell cytotoxicity, dose response, cytotoxicity control for Vif-APOBEC3G degradation inhibitor project, THP-1 cells (AID 1117359); assay type: functional; settings: Human immunodeficiency virus 1, THP-1
HEK293 [14] = assay: cells; settings: Homo sapiens

T2 sequence (Q9HC29 whole entry, the tested form may be a part): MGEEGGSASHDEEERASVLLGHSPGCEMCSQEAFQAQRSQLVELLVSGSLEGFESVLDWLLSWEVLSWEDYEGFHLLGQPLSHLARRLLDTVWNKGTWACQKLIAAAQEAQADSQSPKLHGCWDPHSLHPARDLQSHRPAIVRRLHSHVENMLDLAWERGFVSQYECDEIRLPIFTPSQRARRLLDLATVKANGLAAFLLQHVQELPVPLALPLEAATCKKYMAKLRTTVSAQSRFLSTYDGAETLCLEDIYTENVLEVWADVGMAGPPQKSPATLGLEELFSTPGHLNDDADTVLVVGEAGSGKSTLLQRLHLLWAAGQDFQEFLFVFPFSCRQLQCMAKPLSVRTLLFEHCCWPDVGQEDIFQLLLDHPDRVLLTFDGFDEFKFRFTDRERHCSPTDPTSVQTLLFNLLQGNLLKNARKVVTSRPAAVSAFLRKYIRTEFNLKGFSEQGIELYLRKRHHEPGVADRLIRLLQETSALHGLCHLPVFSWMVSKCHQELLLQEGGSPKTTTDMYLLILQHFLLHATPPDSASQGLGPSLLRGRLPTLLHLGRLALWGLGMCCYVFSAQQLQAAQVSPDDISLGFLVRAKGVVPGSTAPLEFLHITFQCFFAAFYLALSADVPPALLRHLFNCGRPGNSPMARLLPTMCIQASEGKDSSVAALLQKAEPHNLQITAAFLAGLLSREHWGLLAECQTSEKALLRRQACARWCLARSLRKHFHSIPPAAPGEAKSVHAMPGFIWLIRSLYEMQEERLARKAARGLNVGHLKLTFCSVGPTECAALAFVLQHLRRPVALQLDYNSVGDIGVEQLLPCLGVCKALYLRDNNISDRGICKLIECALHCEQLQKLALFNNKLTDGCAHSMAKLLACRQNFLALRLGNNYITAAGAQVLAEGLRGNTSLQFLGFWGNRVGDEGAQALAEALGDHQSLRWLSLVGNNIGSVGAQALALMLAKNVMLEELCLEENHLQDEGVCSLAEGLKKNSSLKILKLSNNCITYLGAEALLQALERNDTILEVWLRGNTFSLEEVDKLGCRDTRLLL
T1 sequence (Q01196 whole entry, the tested form may be a part): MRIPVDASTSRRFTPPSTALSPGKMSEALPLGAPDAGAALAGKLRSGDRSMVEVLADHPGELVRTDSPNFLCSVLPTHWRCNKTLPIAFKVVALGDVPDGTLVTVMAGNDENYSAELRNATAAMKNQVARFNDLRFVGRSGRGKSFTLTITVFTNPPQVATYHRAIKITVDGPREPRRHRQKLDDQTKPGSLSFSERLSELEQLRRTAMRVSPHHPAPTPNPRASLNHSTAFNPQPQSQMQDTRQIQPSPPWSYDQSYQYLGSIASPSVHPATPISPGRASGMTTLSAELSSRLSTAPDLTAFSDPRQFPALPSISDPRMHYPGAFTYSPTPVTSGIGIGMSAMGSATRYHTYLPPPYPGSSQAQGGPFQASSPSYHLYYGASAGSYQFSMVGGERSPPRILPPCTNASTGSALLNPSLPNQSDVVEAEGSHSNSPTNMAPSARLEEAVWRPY
T1 sequence (Q13951 whole entry, the tested form may be a part): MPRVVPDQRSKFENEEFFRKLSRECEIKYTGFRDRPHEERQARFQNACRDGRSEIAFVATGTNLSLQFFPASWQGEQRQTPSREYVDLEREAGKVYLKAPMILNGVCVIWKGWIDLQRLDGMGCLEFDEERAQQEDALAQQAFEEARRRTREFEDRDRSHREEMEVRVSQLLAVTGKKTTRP
Chain of Beta-galactosidase (Q8VNN2 whole entry, the tested form may be a part): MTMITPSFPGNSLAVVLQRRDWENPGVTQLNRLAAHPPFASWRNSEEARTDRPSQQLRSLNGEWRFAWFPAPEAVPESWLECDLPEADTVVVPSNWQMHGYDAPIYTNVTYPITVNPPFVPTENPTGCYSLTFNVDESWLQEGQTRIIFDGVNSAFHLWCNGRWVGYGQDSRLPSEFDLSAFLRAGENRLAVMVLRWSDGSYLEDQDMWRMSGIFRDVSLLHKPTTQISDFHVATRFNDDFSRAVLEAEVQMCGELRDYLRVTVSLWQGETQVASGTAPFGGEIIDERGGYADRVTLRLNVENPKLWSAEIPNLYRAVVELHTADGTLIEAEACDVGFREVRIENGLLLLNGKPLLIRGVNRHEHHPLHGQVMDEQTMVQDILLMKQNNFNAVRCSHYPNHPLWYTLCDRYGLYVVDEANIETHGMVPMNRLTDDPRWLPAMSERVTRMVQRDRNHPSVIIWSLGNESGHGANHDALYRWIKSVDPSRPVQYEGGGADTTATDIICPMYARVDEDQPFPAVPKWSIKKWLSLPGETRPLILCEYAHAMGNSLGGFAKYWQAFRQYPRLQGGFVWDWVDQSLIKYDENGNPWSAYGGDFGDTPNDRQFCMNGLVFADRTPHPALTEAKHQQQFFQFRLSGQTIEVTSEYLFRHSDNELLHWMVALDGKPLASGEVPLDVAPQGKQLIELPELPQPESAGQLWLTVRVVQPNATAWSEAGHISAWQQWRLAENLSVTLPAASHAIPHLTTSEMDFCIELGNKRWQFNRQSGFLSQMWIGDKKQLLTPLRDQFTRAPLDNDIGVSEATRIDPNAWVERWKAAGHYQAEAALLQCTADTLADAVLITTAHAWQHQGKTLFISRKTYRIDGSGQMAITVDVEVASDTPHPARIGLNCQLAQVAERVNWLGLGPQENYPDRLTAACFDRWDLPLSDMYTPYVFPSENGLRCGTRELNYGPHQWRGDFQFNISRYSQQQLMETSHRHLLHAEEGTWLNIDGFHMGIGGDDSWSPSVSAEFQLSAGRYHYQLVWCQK
Chain of G-protein coupled receptor 35 (Q9HC97 whole entry): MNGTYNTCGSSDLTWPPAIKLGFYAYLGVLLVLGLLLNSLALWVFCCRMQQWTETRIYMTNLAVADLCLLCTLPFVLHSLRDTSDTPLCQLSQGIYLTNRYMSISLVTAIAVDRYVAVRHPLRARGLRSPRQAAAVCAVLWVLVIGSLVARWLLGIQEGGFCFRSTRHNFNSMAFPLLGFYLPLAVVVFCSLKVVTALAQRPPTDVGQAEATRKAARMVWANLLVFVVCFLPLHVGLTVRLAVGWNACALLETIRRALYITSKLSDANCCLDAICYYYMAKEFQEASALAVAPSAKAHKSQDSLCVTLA
Chain of Tumor necrosis factor (P01375 whole entry, the tested form may be a part): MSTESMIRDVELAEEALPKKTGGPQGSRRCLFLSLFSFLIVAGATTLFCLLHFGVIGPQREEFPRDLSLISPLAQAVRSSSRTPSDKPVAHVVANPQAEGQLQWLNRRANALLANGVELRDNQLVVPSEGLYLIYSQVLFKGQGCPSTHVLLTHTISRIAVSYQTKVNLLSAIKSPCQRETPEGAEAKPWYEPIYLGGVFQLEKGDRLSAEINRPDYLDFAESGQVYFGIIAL

SMILES: CCOC(=O)C1=C(Cc2ccc(Cl)cc2)C(=O)c2ccccc2C1=O
- IC50 [1]: 4.3 µM (active)
- EC50 (HEK293 [2]): 12.2 µM (active)
- IC50 [3]: > 100 µM (inactive)
- IC50 (HEK293 [4]): > 20 µM (inactive)
- IC50 (HEK293 [5]): > 20 µM (inactive)
- IC50 [6]: 43.6 µM (active)
- EC50 [7]: > 20 µM (inactive)
- IC50 (HEK293 [8]): > 20 µM (inactive)
- IC50 (HEK293 [9]): > 20 µM (inactive)
- IC50 (Tumor necrosis factor): 6.24 µM (active)
- IC50 [10]: 5.78 µM (active)
- IC50 (Beta-galactosidase): > 66.6 µM (inactive)
- IC50 [11]: 7.01 µM (active)
- IC50 (Hexokinase HKDC1): 12.2 µM (active)
- AC50 [12]: 27.2 µM (active)
- CC50 [13]: 19.4 µM (active)
- IC50 (HEK293 [14]): > 20 µM (inactive)
